Experimental data: article PMC9229294, “Pyridazinones and Structurally Related Derivatives with Anti-Inflammatory Activity” (Molecules, 2022)
Read-outs that look alike come from different tables or passages of the source.

Columns and labels:
[1] = test system: LPS-induced IL-6 production in MonoMac-6 cells; test: Inhibition of LPS-induced IL-6 production in MonoMac-6 cells (ELISA); assay type: cell-based, human; settings: for IC50: Homo sapiens, MONO-MAC-6, read-out: Inhibition of IL-6 Production IC50 in MonoMac-6 Cells
Procedure: (§1) Our studies included 175 compounds that were previously synthesized and characterized at NEUROFARBA, Pharmaceutical and Nutraceutical Section, University of Florence, Italy. We previously evaluated the FPR1/FPR2 agonist activity of these compounds by evaluating their ability to induce Ca^2+ mobilization in FPR-transfected HL60 cells and human neutrophils. […] All test compounds were dissolved in DMSO at stock concentrations of 10 mM and stored at −20 °C. For primary screening assays (analysis of NF-κB activation, IL-6 production, and cytotoxicity), the following final concentrations of the compounds were used: 3.125, 6.25, 12.5, 25, and 50 µM; the final concentration of DMSO was 1% in all samples.
A human IL-6 ELISA kit (BD Biosciences, San Jose, CA, USA) was used to measure IL-6 production. […] The cells were pretreated with the test compound or DMSO for 30 min, followed by addition of 250 ng/mL LPS for 24 h. The IC50 values for IL-6 production were calculated by plotting the percentage inhibition against the logarithm of the inhibitor concentration (at least five points).

[2] = Cytotoxicity, CellTiter-Glo, THP1-Blue cells; assay type: cell-based, human; settings: human, THP1-Blue cells
Procedure: as §1
(§2) The cytotoxicity was analyzed with a CellTiter-Glo Luminescent Cell Viability Assay Kit from Promega (Madison, WI, USA), according to the manufacturer’s protocol. The luminescent ATP assays are based on a luciferase enzymatic reaction which uses ATP from viable cells to generate photons. For this assay, the cells were incubated with the compounds under investigation for 24 h. After treatment, the cells were equilibrated to room temperature for 30 min, luciferase + luciferin substrate was added, and the samples were analyzed with a Fluoroscan Ascent FL (Thermo Fisher Scientific, Waltham, MA, USA). The IC50 values were calculated by plotting the percentage inhibition against the logarithm of the inhibitor concentration (at least five points).

[3] = test system: LPS-induced NF-κB activity in THP1-Blue cells; test: Inhibition of LPS-induced NF-κB transcriptional activity, alkaline phosphatase reporter, THP1-Blue cells; assay type: cell-based, human; settings: for IC50: LPS-induced NF-κB activity, human THP1-Blue cells, N.A. = no activity at 50 µM; for Observed class for inhibition of NF-κB activity: experimentally observed, Active or N.A.; for Inhibition of LPS-induced NF-κB activity (in words): THP1-Blue cells, 250 ng/mL LPS, 24 h; for Effect of blocking FPR1 (Boc-MLF) on inhibitor activity on LPS-induced NF-κB activation: 25 μM Boc-MLF 15 min, then 5 µM compound, LPS-treated THP1 cells
Procedure: as §1
The activation of NF-κB was measured using an alkaline phosphatase reporter assay in human monocytic THP1-Blue cells stably transfected with a secreted embryonic alkaline phosphatase gene that is under the control of a promoter inducible by the NF-κB. The THP1-Blue cells (2 × 10^5 cells/well) were pretreated with the test compound or DMSO for 30 min, followed by an addition of 250 ng/mL LPS for 24 h. Alkaline phosphatase activity was determined in cell supernatants using a QUANTI-Blue mix (InvivoGen) and measured at 655 nm and compared with positive control samples (LPS).

[4] = Cytotoxicity, CellTiter-Glo, MonoMac-6 cells; assay type: cell-based, human; settings: human, MonoMac-6 cells
Procedure: as §1, §2

MonoMac-6 cells = test: Cytotoxicity, CellTiter-Glo, MonoMac-6 cells; assay type: cell-based, human; settings: 24 h
Procedure: as §1, §2

FPR2 [5] = molecular target: T1, FPR2 (Homo sapiens, UniProt P25090); test: Ca2+ mobilization in FPR2-transfected HL-60 cells (agonist activity); assay type: cell-based; settings: reported here for the first time (Suppl.)
T1 construct: expressed in transfected cells; host or cells: HL-60 cells (FPR2-HL60)
T1 sequence (P25090 1-351): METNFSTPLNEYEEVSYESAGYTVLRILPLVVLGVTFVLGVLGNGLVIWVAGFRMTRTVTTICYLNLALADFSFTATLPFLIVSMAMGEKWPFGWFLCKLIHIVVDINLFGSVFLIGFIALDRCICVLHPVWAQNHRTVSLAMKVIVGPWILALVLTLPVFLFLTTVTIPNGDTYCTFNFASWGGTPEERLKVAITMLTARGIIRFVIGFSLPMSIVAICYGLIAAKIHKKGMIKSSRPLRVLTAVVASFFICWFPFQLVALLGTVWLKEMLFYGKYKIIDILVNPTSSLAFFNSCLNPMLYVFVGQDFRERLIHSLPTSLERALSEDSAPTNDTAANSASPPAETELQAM
Procedure: (§3) Changes in the intracellular Ca^2+ [Ca^2+]i were measured with a FlexStation II scanning fluorometer (Molecular Devices). The cells, which were suspended in Hank’s balanced salt solution without Ca^2+ and Mg^2+ but with 10 mM HEPES (HBSS^−), were loaded with 1.25 μg/mL Fluo-4 AM dye and incubated for 30 min in the dark at 37 °C. After the dye loading, the cells were washed with HBSS^− containing 10 mM HEPES, resuspended in HBSS^+ containing Ca^2+, Mg^2+, and 10 mM HEPES (HBSS^+), and aliquoted into the wells of black microtiter plates (2 × 10^5 cells/well). […] The maximum change in the fluorescence during the first 3 min, expressed in arbitrary units over the baseline, was used to determine a response. […] A curve fitting (5–6 points) and a calculation of median effective inhibitory concentrations (IC50) were performed by nonlinear regression analysis of the dose–response curves generated using Prism 8 (GraphPad Software, Inc., San Diego, CA, USA).

FPR1 [6] = molecular target: T2, FPR1 (Homo sapiens, UniProt P21462); test: Ca2+ mobilization in FPR1-transfected HL-60 cells (agonist activity); assay type: cell-based; settings: reported here for the first time (Suppl.)
T2 construct: expressed in transfected cells; host or cells: HL-60 cells (FPR1-HL60)
T2 sequence (P21462 1-350): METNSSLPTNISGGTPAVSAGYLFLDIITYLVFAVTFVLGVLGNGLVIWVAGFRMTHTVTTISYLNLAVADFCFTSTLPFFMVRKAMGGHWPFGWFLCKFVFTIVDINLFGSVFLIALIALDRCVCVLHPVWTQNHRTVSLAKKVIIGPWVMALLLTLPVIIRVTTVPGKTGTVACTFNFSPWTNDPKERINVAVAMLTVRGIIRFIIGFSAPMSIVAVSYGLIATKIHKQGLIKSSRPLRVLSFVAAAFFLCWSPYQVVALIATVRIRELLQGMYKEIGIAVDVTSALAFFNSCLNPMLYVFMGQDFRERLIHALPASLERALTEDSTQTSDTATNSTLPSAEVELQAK
Procedure: as §3

[7] = test system: rats with CFA-induced inflammatory arthritis; set-up: method as in PMID 32388428; settings: cited from earlier work
FPR2 [8] = molecular target: T1, FPR2; settings: FPR2-transfected HL-60 cells, read-out: Ca2+ Mobilization FPR2 EC50 in HL-60 Cells, cited from earlier work
FPR1 [9] = molecular target: T2, FPR1; settings: FPR1-transfected HL-60 cells, read-out: Ca2+ Mobilization FPR1 EC50 in HL-60 Cells, cited from earlier work
mouse aortas = test system: mouse aortas; set-up: method as in PMID 19639995, PMID 32085666, PMID 28169296; settings: cited from earlier work
[10] = test system: myocardial infarction injury in mice; set-up: method as in PMID 19639995, PMID 32085666, PMID 28169296; settings: cited from earlier work
THP1-Blue cells = test: Cytotoxicity, CellTiter-Glo, THP1-Blue cells; assay type: cell-based, human; settings: for Cytotoxicity in THP1-Blue Cells (FPR peptide agonists): peptides tested at 5 nM, N.T. = no cytotoxicity
Procedure: as §1, §2

[11] = N.T. = no cytotoxicity at 50 µM, read-out: Cytotoxicity IC50 in THP1-Blue Cells
[12] = Table 3, as reported previously (see Table 1)

Cc1cc(Cc2ccsc2)c(=O)n(CC(=O)Nc2ccc(Br)cc2)n1 [Compound 9]
IC50 [1]: 27.5 ± 1.6 µM
IC50 at 24 h [2, 11]: > 50 µM
IC50 ([3]; Homo sapiens): 18 ± 0.7 µM
Observed class for inhibition of NF-κB activity [3]: Active
IC50 at 24 h [4]: 19 ± 3.6 µM
Cytotoxicity in MonoMac-6 cells (in words) (MonoMac-6 cells): exhibiting cytotoxicity

Cc1cc(Cc2ccc(C(=O)Nc3ccc(Br)cc3)cc2)c(=O)n(CC(=O)Nc2ccc(Br)cc2)n1 [Compound 61]
EC50 (FPR2 [5]): > 50 µM
EC50 (FPR1 [6]): > 50 µM

COc1cccc(Cc2c(C)c(C)nn(CC(=O)Nc3ccc(Br)cc3)c2=O)c1 [Compound 69]
IC50 at 24 h [2, 11]: > 50 µM
IC50 ([3]; Homo sapiens): 34.5 ± 2.6 µM
Inhibition of LPS-induced NF-κB activity (in words) [3]: inhibited
Observed class for inhibition of NF-κB activity [3]: Active
Pain hypersensitivity [7]: reduce pain hypersensitivity

COc1cccc(Cc2c(-c3ccccc3)c(C)nn(CC(=O)Nc3ccc(Br)cc3)c2=O)c1 [Compound 71, N-(4-bromophenyl)-2-[5-(3-methoxybenzyl)-3-methyl-6-oxo-4-phenylpyridazin-1(6H)-yl]-acetamide]
IC50 [1]: 2 ± 0.3 µM
Inhibition of LPS-induced IL-6 production (in words) ([1]; MonoMac-6 cells, 250 ng/mL LPS, 24 h): inhibited
IC50 at 24 h [2, 11]: > 50 µM
Effect of blocking FPR1 (Boc-MLF) on inhibitor activity on LPS-induced NF-κB activation [3]: no effect
IC50 ([3]; Homo sapiens): 0.5 ± 0.1 µM
Inhibition of LPS-induced NF-κB activity (in words) [3]: inhibited
Observed class for inhibition of NF-κB activity [3]: Active
EC50 (FPR2 [8]; agonist activity from Table 1): > 50 µM
EC50 (FPR2 [8]; [12]): > 50 µM
Pain hypersensitivity [7]: reduce pain hypersensitivity
EC50 (FPR1 [9]; [12]): 2.2 µM
IC50 at 24 h [4]: > 50 µM

COc1cccc(Nc2c(C(C)=O)c(C)nn(CC(=O)Nc3ccc(Br)cc3)c2=O)c1 [Compound 73]
Inhibition of LPS-induced NF-κB activity (in words) [3]: inactive
Pain hypersensitivity [7]: reduce pain hypersensitivity

COc1cccc(Cc2cc(C)nn(C(C)C(=O)Nc3ccc(Br)cc3)c2=O)c1 (centres unmarked) [Compound 84, N-(4-bromophenyl)-2-[5-(3-methoxybenzyl)-3-methyl-6-oxopyridazin-1(6H)-yl]-propanamide]
IC50 [1]: 30.7 ± 1.8 µM
IC50 at 24 h [2, 11]: > 50 µM
Effect of blocking FPR1 (Boc-MLF) on inhibitor activity on LPS-induced NF-κB activation [3]: no effect
IC50 ([3]; Homo sapiens): 0.6 ± 0.1 µM
Endothelium-independent relaxation (mouse aortas): induce endothelium-independent relaxation
Cardioprotection in myocardial infarction injury [10]: cardioprotection effect
IC50 at 24 h [4]: > 50 µM

CC1CC(c2ccccc2)=NN(CC(=O)Nc2ccc(Br)cc2)C1=O (centres unmarked) [Compound 125]
IC50 [1]: 7.2 ± 0.03 µM
IC50 (THP1-Blue cells; THP1-Blue cells, N.T. = no cytotoxicity at 50 µM): > 50 µM
IC50 [3]: 22.4 ± 0.7 µM
EC50 (FPR2 [8]; agonist activity from Table 1): 10 µM
EC50 (FPR2 [8]; [12]): 10 µM
EC50 (FPR1 [9]; agonist activity from Table 1): 24.4 µM
EC50 (FPR1 [9]; [12]): 24.4 µM
IC50 at 24 h [4]: > 50 µM

Nc1cc(-c2ccncc2)cn(CC(=O)Nc2ccc(Br)cc2)c1=O [Compound 139]
EC50 (FPR2 [5]): > 50 µM
EC50 (FPR1 [6]): > 50 µM

COc1cccc(Nc2c(C)c(-c3ccccc3)nn2CC(=O)Nc2ccc(Br)cc2)c1 [Compound 158]
Cytotoxicity in THP1-Blue cells (in words) (THP1-Blue cells; 24 h): cytotoxic
IC50 at 24 h ([2]; 24 h, read-out: Cytotoxicity IC50): 22 to 26 µM
IC50 at 24 h [2, 11]: 22.4 ± 5.2 µM
IC50 ([3]; Homo sapiens): 8.8 ± 1.1 µM
Observed class for inhibition of NF-κB activity [3]: Active
EC50 (FPR2 [8]; agonist activity from Table 1): > 50 µM
EC50 (FPR1 [9]; agonist activity from Table 1): > 50 µM

CSCC[C@H](NC(=O)[C@@H](NC(=O)[C@H](CCSC)NC(=O)[C@H](Cc1ccc(O)cc1)NC(=O)[C@H](CCCCN)NC(=O)[C@@H](N)Cc1c[nH]c2ccccc12)C(C)C)C(=O)O [WKYMVM, Trp-Lys-Tyr-Met-Val-Met, reference compound]
Cytotoxicity in THP1-Blue Cells (FPR peptide agonists) (THP1-Blue cells; THP1-Blue cells): N.T. (No cytotoxicity was observed at the highest concentration tested (50 µM))

CSCC[C@H](NC=O)C(=O)N[C@@H](CC(C)C)C(=O)N[C@@H](Cc1ccccc1)C(=O)O [f MLF]
Cytotoxicity in THP1-Blue Cells (FPR peptide agonists) (THP1-Blue cells; THP1-Blue cells): N.T. (No cytotoxicity was observed at the highest concentration tested (50 µM))
